Reference: paper PMC7531004, “Discovery of gramicidin A analogues with altered activities by multidimensional screening of a one-bead-one-compound library” (Nature Communications, 2020)
Several values for one entry are separate records, joined by “and”; a condition that tells them apart may be missing. Equal values may be shown once. Read-outs that look alike come from different tables or passages of the source. Where a SMILES comes first, the peptide text is derived from it. [ ]: non-standard residue; d: D form. The star is where a group is joined. NHCH2CH2OH = OCCN*; For = O=C*

Key:
[1] = H+/Na+ transport assay of purified peptides; conditions: for Supplementary Figure 5 dose-response value (H+/Na+ transport): three replicate lines
[2] = test system: Enterococcus faecalis JCM5803; conditions: for antibacterial activity/MIC: E. faecalis; for Antibacterial activity MIC: JCM5803
Protocol: (§1) Third, 1 was subjected to five pathogenic Gram-positive bacteria.
(§2) Evaluation of antibacterial spectra of purified peptides. The MIC assay was performed according to the Clinical and Laboratory Standards Institute protocols. The antibacterial activities of the purified peptides A1, B01–B04, B11–B13, B21, and B22 were measured using the broth microdilution method. 6 Serial dilutions of the peptides were prepared in cation adjusted Mueller Hinton Broth. Each dilution (100 µL) was dispensed to each well of the round-bottom plate to obtain final concentrations ranging from 64 µg/mL to 0.00024 µg/mL. Bacteria were grown at 37 °C overnight on Tryptic Soy Broth or Mueller Hinton Broth agar plates.
(§3) The bacterial colonies were suspended in 0.9% saline to obtain OD 625 of 0.08–0.13 using a spectrophotometer UV-1280 (Shimadzu). The resultant suspension was diluted with cation adjusted Mueller Hinton Broth (1/20). The resultant mixture (10 .0 µL) was inoculated to each well of the plates (approximately 5 × 10^4 CFU/well), mixed, and incubated at 37 °C for 18–24 h. The MIC value was determined as the minimum concentration that inhibited growth of bacteria. For Streptococcus species, cation adjusted Mueller Hinton Broth supplemented with 5% laked horse blood was used. […]

[3] = test system: Streptococcus pyogenes SSI-9; conditions: for antibacterial activity/MIC: S. pyogenes; for Antibacterial activity MIC: SSI-9
Protocol: as §1, §2, §3

[4] = test system: Listeria monocytogenes 10403S; conditions: for Antibacterial activity MIC: 10403S; for antibacterial activity/MIC: L. monocytogenes
Protocol: as §1, §2, §3

[5] = test system: Streptococcus agalactiae JCM5671; conditions: for Antibacterial activity MIC: JCM5671; for antibacterial activity/MIC: S. agalactiae
Protocol: as §1, §2, §3

[6] = test system: Streptococcus pneumoniae NBRC 102642; conditions: for Antibacterial activity MIC: NBRC 102642; for antibacterial activity/MIC: S. pneumoniae
Protocol: as §1, §2, §3

[7] = test system: MSSA1 (methicillin-susceptible Staphylococcus aureus); assay type: cell-based
Protocol: as §2, §3

[8] = Protocol: (§4) Second, we examined the cytotoxicity toward mammalian cancer cells and hemolytic activity of 1. […] Hemolytic activity was evaluated by monitoring hemoglobin leakage from rabbit red blood cells as a consequence of membrane damage. The concentration of 1 required to cause 10% hemoglobin leakage (HC10) was 160 nM. Thus, the P388 cytotoxicity of 1 was 28-fold more sensitive than its hemolytic activity.
Mammalian cytotoxicity assay of purified peptides.
B22 was diluted with the growth medium with 2% DMSO to various concentrations as 5-fold serial dilution.
The collected cells were resuspended into
the growth medium at 2 × 10^4 cells/mL. Aliquots of the former medium (2% DMSO, 100 µL) containing
peptides and the latter medium containing P388 cells (100 µL) were mixed in a 96-well cell culture plate
(TR5003, TrueLine). The final concentration of P388 cells and DMSO were 1 × 10^4 cells/mL and 1%,
respectively. […]
were determined by WST -1 assay. A solution of 1-methoxy PMS and WST-1 in the growth medium
(1-methoxy PMS 0.70 mg/mL in Milli-Q/WST-1 3.6 mg/mL in pH 7.4 HEPES buffer = 1/9) was added to
each well of the plate (20.0 µL/well). The cells were incubated for 4 h under atmosphere of 5% CO 2 at
37 °C. The absorbance of each well at 415 nm was measured using a Benchmark microplate reader
(Bio-Rad) or Thermo Scientifi c Multiskan GO (Thermo Fisher Scientific). The cytotoxicities of the purified
peptides were evaluated as IC 50 (nM) by means of three replicates. Sigmoidal curve fittings were performed

rabbit red blood cells = conditions: red cells of rabbit, 2 h
Protocol: as §4
Hemolysis assay of purified peptides. […]
with DMSO to various concentrations as 3-fold serial dilution. A 50% suspension of rabbit blood in Alsever's solution was obtained from Nippon Bio -Supp. Center . The blood suspension (250 µL) w as diluted with phosphate buffered saline (no calcium, no magnesium, 1.00 mL). The resultant suspension was centrifuged at 1000 × g for 3 min at 8 °C. The supernatant was discarded, and the collected cells were resuspended in phosphate buffered saline (no calcium, no magnesium, 1.00 mL). The same procedure was repeated (× 3). The resultant suspension (100 µL) was diluted with phosphate buffered saline (no calcium, no magnesium, 4.90 mL) to give 0.2% red blood cells suspension. The 0.2% red blood cells suspension (95.0 µL) and each dilution series of the purified peptide in DMSO (5 .0 µL) were mixed in 2 mL microtube.
supernatant was transferred to a 96-well plate (TR5003, TrueLine). The absorbance of each well at 415 nm was measured using a Thermo Scientific Multiskan GO (Thermo Fisher Scientific). The mixture of Triton X-100/H2O (5/95, 2.0 µL), DMSO (5.0 µL), and the 0.2% red blood cells suspension (95.0 µL) was used to determine 100% hemolysis. The mixture of DMSO (5.0 µL) and the 0.2% red blood cells suspension (95.0 µL) was used to determine 0% hemolysis. The hemolytic activities of tested peptides ( I) were normalized against 100% hemolysis by Triton X -100 (Imax) and 0% hemolysis by DMSO (I0) according to Supplementary Equation 3, where Ix is the UV absorbance.
I = 100 × (Ix – I0) / (Imax – I0) (3)
The hemolytic activities of the purified peptides were evaluated as the concentrations causing 10% hemolysis (HC10, nM) by means of three replicates. Sigmoidal curve fittings were performed on GraphPad Prism (GraphPad software, Supplementary Figure 7).

[9] = read-out: EC50, H+/Na+ transport assay, 1st experiment
[10] = read-out: EC50, H+/Na+ transport assay, 2nd experiment
[11] = read-out: EC50, H+/Na+ transport assay, 3rd experiment
[12] = read-out: H+/Na+ transport activity EC50, EYPC/EYPG (19:1) LUVs
[13] = read-out: H+/Na+ transport activity/EC50, mean ± SD of three independent experiments
[14] = IC50, mammalian cytotoxicity assay
[15] = cytotoxicity against P388 cells/IC50

Compound | Supplementary Figure 5 dose-response value (H+/Na+ transport) ([1]; concentration 0.000512 nM) | Supplementary Figure 5 dose-response value (H+/Na+ transport) ([1]; concentration 0.00256 nM) | Supplementary Figure 5 dose-response value (H+/Na+ transport) ([1]; concentration 0.0128 nM) | Supplementary Figure 5 dose-response value (H+/Na+ transport) ([1]; concentration 0.064 nM) | Supplementary Figure 5 dose-response value (H+/Na+ transport) ([1]; concentration 0.32 nM) | Supplementary Figure 5 dose-response value (H+/Na+ transport) ([1]; concentration 1.6 nM) | Supplementary Figure 5 dose-response value (H+/Na+ transport) ([1]; concentration 8 nM) | Supplementary Figure 5 dose-response value (H+/Na+ transport) ([1]; concentration 40 nM) | Supplementary Figure 5 dose-response value (H+/Na+ transport) ([1]; concentration 200 nM) | Supplementary Figure 5 dose-response value (H+/Na+ transport) ([1]; concentration 1000 nM) | Supplementary Figure 5 dose-response value (H+/Na+ transport) ([1]; concentration 5000 nM) | EC50 [1, 9] | EC50 [1, 10] | EC50 [1, 11] | EC50 [1, 12] | EC50 [1, 13] | antibacterial activity/MIC [2] | Antibacterial activity MIC [2] | antibacterial activity/MIC [3] | Antibacterial activity MIC [3] | also measured
CC(C)C[C@@H](NC(=O)[C@H](C)NC(=O)[C@H](NC(=O)[C@H](C)NC(=O)CNC(=O)[C@@H](NC=O)C(C)C)C(C)C)C(=O)N[C@H](C(=O)N[C@@H](C(=O)N[C@@H](Cc1c[nH]c2ccccc12)C(=O)N[C@@H](C(=O)N[C@@H](Cc1c[nH]c2ccccc12)C(=O)N[C@H](CC(C)C)C(=O)N[C@@H](Cc1c[nH]c2ccccc12)C(=O)N[C@H](CC(C)C)C(=O)N[C@@H](Cc1c[nH]c2ccccc12)C(=O)NCCO)C(C)C)C(C)C)C(C)C [B02] (For-VGA[dV]A[dL]V[dV]W[dV]W[dL]W[dL]W-NHCH2CH2OH) | 0.2643 and 0.7827 and 0.1241 | 2.146 and 0.0547 and 1.671 | 4.163 and 0.6112 and 1.64 | 7.246 and 2.883 and 3.652 | 11.0985 and 10.392 and 10.3413 | 29.1914 and 27.2825 and 29.9486 | 56.3118 and 49.6431 and 51.0872 | 73.3306 and 69.0608 and 69.1921 | 73.6961 and 72.6071 and 72.9778 | 75.3536 and 79.2012 and 75.9728 | 75.4417 and 72.7674 and 77.9824 | 3.08 nM | 1.68 nM | 5.38 nM | 3.4 nM | 3.38 ± 1.87 nM | 0.25 µg/mL | 0.13 µM | 0.13 µg/mL | 0.067 µM | Antibacterial activity MIC [4]: 2.1 µM; antibacterial activity/MIC [4]: 4 µg/mL; Antibacterial activity MIC [5]: 8.6 µM; antibacterial activity/MIC [5]: 16 µg/mL; Antibacterial activity MIC [6]: 0.0083 µM; antibacterial activity/MIC [6]: 0.016 µg/mL; antibacterial activity/MIC [7]: 32 µg/mL; IC50 ([8]; Cytotoxicity IC50): 17 nM; IC50 [8, 14]: 18.7 nM; IC50 [8, 15]: 16.8 ± 2.82 nM; Hemolytic activity HC10 (concentration causing 10% hemolysis) (rabbit red blood cells): 1400 nM
CC(C)C[C@@H](NC(=O)[C@H](C)NC(=O)CNC(=O)[C@@H](NC=O)C(C)C)C(=O)N[C@@H](C)C(=O)N[C@@H](C(=O)N[C@H](C(=O)N[C@@H](C(=O)N[C@@H](Cc1c[nH]c2ccccc12)C(=O)N[C@@H](C(=O)N[C@@H](Cc1c[nH]c2ccccc12)C(=O)N[C@@H](C(=O)N[C@@H](Cc1c[nH]c2ccccc12)C(=O)N[C@@H](C(=O)N[C@@H](Cc1c[nH]c2ccccc12)C(=O)NCCO)C(C)C)C(C)C)C(C)C)C(C)C)C(C)C)C(C)C [B03] (For-VGA[dL]A[dV]V[dV]W[dV]W[dV]W[dV]W-NHCH2CH2OH) | 3.426 and 4.542 and 4.454 | 4.063 and 4.369 and 6.1349 | 8.086 and 3.88 and 7.199 | 11.12 and 10.2864 and 11.0165 | 19.1274 and 20.4439 and 18.4811 | 44.4719 and 42.2282 and 45.2028 | 70.1046 and 68.0194 and 61.5034 | 68.5122 and 68.0449 and 67.6654 | 74.8622 and 71.9344 and 68.9589 | 72.6177 and 71.4474 and 69.5798 | 79.6141 and 83.2523 and 73.0858 | 1.77 nM | 1.01 nM | 1.18 nM | 1.3 nM | 1.32 ± 0.4 nM | 1 µg/mL | 0.54 µM | 0.13 µg/mL | 0.068 µM | Antibacterial activity MIC [4]: 4.3 µM; antibacterial activity/MIC [4]: 8 µg/mL; Antibacterial activity MIC [5]: 17 µM; antibacterial activity/MIC [5]: 32 µg/mL; Antibacterial activity MIC [6]: 0.0042 µM; antibacterial activity/MIC [6]: 0.0078 µg/mL; antibacterial activity/MIC [7]: 32 µg/mL; IC50 ([8]; Cytotoxicity IC50): 38 nM; IC50 [8, 14]: 35.9 nM; IC50 [8, 15]: 37.6 ± 1.56 nM; Hemolytic activity HC10 (concentration causing 10% hemolysis) (rabbit red blood cells): 2000 nM
